In patent US12433889B2 (priority 2021, dated 2025):
In brackets after ≈: the same amount, converted by molar mass.

Experiments:
M. Chimaera CIP 107892 = test: MIC by microbroth dilution, with and without CF sputum; type: cell-based; details: Mycobacterium intracellulare
M. avium B18101968 = test: as above; type: cell-based; details: Mycobacterium avium
M. avium ATCC 700898 = test: as above; type: cell-based; details: Mycobacterium avium
M. abscessus CIP104536 = test: as above; type: cell-based; details: Mycobacteroides abscessus
[1] = BCS class II; cited from earlier work
M. abscessus B18104072 = test: MIC by microbroth dilution, with and without CF sputum; type: cell-based; details: Mycobacteroides abscessus
[2] = humans, microcrystalline suspension in an oil-wax base; cited from earlier work
M. abscessus B12052284 = test: MIC by microbroth dilution, with and without CF sputum; type: cell-based; details: Mycobacteroides abscessus
[3] = test system: M. intracellulare DSM 43223; test: as above; type: cell-based; details: Mycobacterium intracellulare
M. abscessus B15029863 = test: as above; type: cell-based; details: Mycobacteroides abscessus

MIC (M. Chimaera CIP 107892; CIP107892, + SP (10% CF sputum)): > 2 µg/mL
MIC (M. Chimaera CIP 107892; CIP107892, absence of sputum): 0.5 µg/mL (≈ 1.06 µM)
MIC (M. avium B18101968; B18101968, + SP (10% CF sputum)): > 2 µg/mL
MIC (M. avium B18101968; B18101968, absence of sputum): 0.5 µg/mL (≈ 1.06 µM)
MIC (M. avium ATCC 700898; ATCC700898, + SP (10% CF sputum)): > 2 µg/mL
MIC (M. avium ATCC 700898; ATCC700898, absence of sputum): 0.25 µg/mL (≈ 0.528 µM)
MIC (M. abscessus CIP104536; CIP104536, + SP (10% CF sputum)): > 2 µg/mL
MIC (M. abscessus CIP104536; CIP104536, absence of sputum): 0.25 µg/mL (≈ 0.528 µM)
MIC (M. abscessus B18104072; B18104072, + SP (10% CF sputum)): > 2 µg/mL
MIC (M. abscessus B18104072; B18104072, absence of sputum): 1 µg/mL (≈ 2.11 µM)
MIC (M. abscessus B12052284; B12052284, + SP (10% CF sputum)): > 2 µg/mL
MIC (M. abscessus B12052284; B12052284, absence of sputum): 2 µg/mL (≈ 4.22 µM)
MIC ([3]; DSM43223, + SP (10% CF sputum)): > 2 µg/mL
MIC ([3]; DSM43223, absence of sputum): 1 µg/mL (≈ 2.11 µM)
MIC (M. abscessus B15029863; B15029863, + SP (10% CF sputum)): > 2 µg/mL
MIC (M. abscessus B15029863; B15029863, absence of sputum): 2 µg/mL (≈ 4.22 µM)
Structure (SMILES): CC(C)/N=c1\cc2n(-c3ccc(Cl)cc3)c3ccccc3nc-2cc1Nc1ccc(Cl)cc1 [Clofazimine, clofazimine]
solubility in water [1]: practically insoluble in water
absorption after oral administration [2]: 45-62%
